Patent publication US20240190922A1, “PEPTIDE PLATINUM COMPLEXES AND METHODS OF USE THEREOF” (priority 2020, published 2024)
Ends that are not written are not given here.

Test system: A375 cells (human skin melanoma derived cell line)
Assay: A375 cell killing assay (CellTiter-Glo luminescence)
Assay type: cell-based
Settings: for potency relative to Onco-001 (times more potent): from EC50 values
Description: Alternatively, A375 cells (human skin melanoma derived cell line) are harvested by centrifugation and then re-suspended in a culture medium. The cell density is adjusted, and cell suspension transferred to the assay multi-well plate. The marginal wells are filled with PBS. The assay plate is incubated in a cell incubator for about 16˜18 hours. Working solutions of test compounds and positive control at various concentrations are added to corresponding wells of the plate. The assay plate is then incubated for an additional 72 hours in a 37° C./5% CO2 incubator. After incubation, the working solution of CellTiter-Glo® reagent is added to the corresponding wells and shaken on an orbital shaker. The assay plate is incubated at room temperature for a short while to stabilize the luminescent signal. Luminescence signals are measured by a luminescence plate reader, such as PheraStar (BMG). Data are stored on a local computer or computer server for analysis.

Substance	potency relative to Onco-001 (times more potent)	EC50 (72 hours incubation, CellTiter-Glo) [µM]
Onco -005 (Ac-GPSRVGG; not fully specified (C-terminus); also: gamma-carboxyglutamic acid, no place given)	approximately 15 ×	–
cis-bis[AcGPSRVGGCNH2][trans-(1R,2R)-1,2-diaminocyclohexane]platinum(II) [Onco-001]	–	~130
Onco-003: formula (I): R1 and R2 form trans-R,R-1,2-diaminocyclohexane, R3 and R4 joined by bidentate peptide AcGPSRVGGCD	approximately 15 ×	–
